Reference: patent US7273863B1, “Benzophenones as inhibitors of reverse transcriptase” (SmithKline Beecham Corporation, priority 1999, dated 2007)
Where two headings read alike, the source gives them in different places.

Columns and labels:
WTRVA = assay: HeLa cell assay (HIV-LTR β-galactosidase reporter); assay type: cell-based, HIV-1; conditions: Human immunodeficiency virus 1, Virus Type WTRVA, read-out: IC50 (nM) Range
Procedure: (§1) The HeLa cell assay was performed according to a modification of Kimpton J. and Emerman M., Detection of replication-competent and pseudotyped human immunodeficiency virus with a sensitive cell line on the basis of activation of an integrated β-galactosidase gene, J. Virol. 66:2232-2239 (1992), in which HIV-1 infection is detected by the activation of an HIV-LTR driven β-galactosidase reporter that is integrated into the genome of a CD4^+ HeLa cell line. Quantitation of β-galactosidase is achieved by measuring the activation of a chemiluminescent substrate (Tropix). The concentration of each compound required to inhibit 50% (IC50) of the HIV-1 induced β-galactosidase signal, relative to untreated controls, was determined for each isogenic, recombinant virus.
(§2) HeLa-CD4-LTR-β-gal cells were obtained from the NIH AIDS Research and Reference Reagent Program. Cells were propagated in DMEM containing 10% fetal bovine serum, 0.2 mg/ml geneticin and 0.1 mg/ml hygromycin B. Cells were routinely split by trypsinization when confluency reached 80% (approximately every 2 to 3 days).
(§3) DNA encoding the HIV-1 reverse transcriptase was subcloned from a M13 phage into a general shuttle vector, pBCSK+, as a ˜1.65 kbp EcoRI/HindIII ended DNA fragment. The HIV DNA insert of the resulting plasmid, pRT2, was completely sequenced on both strands prior to use in site directed mutagenesis experiments. Specific amino acid replacements were made using Stratagene Quick Change reagents and mutagenic oligonucleotides from Oligos. Following mutagenesis, the entire mutant RT coding sequence was verified by sequencing both DNA strands.
(§4) Mutant HIV-1 strains were isolated by a modified Recombinant Virus Assay (Kellam P. and Larder B., Recombinant virus assay: a rapid, phenotypic assay for assessment of drug susceptibility of human immunodeficiency virus type 1 isolates, Antimicrobial Agents and Chemotherapy, 38:23-30, 1994). 1×10^7 Jurkat T-cells (maintained in RPMI containing 10% fetal bovine serum, split 1:5 every 5 to 6 days) were co-transfected with EcoRI/HindIII digested mutant RT plasmid and Bst EII-digested HIV-1HXB2ΔRT DNA in the presence of DMRIE-C transfection reagent (Gibco) according to supplier's recommended protocol. Each mutant RT coding sequence was crossed into the RT-deleted HIV-1 viral DNA backbone by in vivo homologous recombination. Transfected cell cultures were expanded and monitored until syncitia formation and CPE were extensive. Virus was harvested by clear spin of the culture supernatants and frozen at −80 C as primary stock. Recombinant progeny virus was sequenced in the RT region to confirm the mutant genotype. Virus stocks were further expanded by infection of Jurkat cells, harvested and stored as frozen aliquots. Stocks were titered in HeLa MAGI cells for assay.
(§5) The HIV-1HXB2 mutants were titered in the HeLa MAGI assay system to determine the relative light units (RLU) per ml, a measure of infectivity relevant for this assay system. Virus stocks were diluted in a 2-fold series into DMEM containing 10% fetal bovine serum plus 20 ug/ml DEAE-dextran and assayed as described in the Experimental Protocol section, below.
(§6) 96-well microtiter plate(s) (Costar #3598) were seeded with 3×10^3 HeLa-CD4-LTR-β-gal in 100 μl DMEM containing 10% fetal bovine serum. Plates were placed in a 37° C., 5% CO2 humidified incubator overnight. The following day, mutant virus stocks were thawed in a room temperature water bath and diluted into DMEM containing 10% fetal bovine serum and 20 μg/ml DEAE-dextran to achieve an input of 1500 to 2000 RLU/ml. All media was removed with an 8 channel manifold aspirator and 35 μl (50 to 70 total RLUs) of diluted virus was added to each well for virus adsorption. Plates were placed in a 37° C., 5% CO2 humidified incubator for 1.5 to 2 hours.
(§7) Compound titration plates were prepared at 1.35× final concentration during the virus adsorption period. […]

NEV-R = assay: MT4 cell assay, antiviral HIV activity (propidium iodide); assay type: cell-based; conditions: Human immunodeficiency virus 1, MT4, read-out: IC50 (nM) Range
[1] = test system: isogenic HIV-1 RT mutant virus V106I; assay: HeLa cell assay (HIV-LTR β-galactosidase reporter); assay type: cell-based; conditions: Human immunodeficiency virus 1, HeLa, read-out: IC50 (nM) Range
Procedure: as §1, §2, §3, §4, §5, §6, §7

[2] = test system: isogenic HIV-1 RT mutant virus V106A/Y181C; assay: HeLa cell assay (HIV-LTR β-galactosidase reporter); assay type: cell-based; conditions: Human immunodeficiency virus 1, HeLa, read-out: IC50 (nM) Range
Procedure: as §1, §2, §3, §4, §5, §6, §7

[3] = test system: isogenic HIV-1 RT mutant virus K103N; assay: HeLa cell assay (HIV-LTR β-galactosidase reporter); assay type: cell-based; conditions: Human immunodeficiency virus 1, HeLa, read-out: IC50 (nM) Range
Procedure: as §1, §2, §3, §4, §5, §6, §7

[4] = test system: isogenic HIV-1 RT mutant virus Y181C; assay: HeLa cell assay (HIV-LTR β-galactosidase reporter); assay type: cell-based; conditions: Human immunodeficiency virus 1, HeLa, read-out: IC50 (nM) Range
Procedure: as §1, §2, §3, §4, §5, §6, §7

[5] = test system: isogenic HIV-1 RT mutant virus V106I/Y181C; assay: HeLa cell assay (HIV-LTR β-galactosidase reporter); assay type: cell-based; conditions: Human immunodeficiency virus 1, HeLa, read-out: IC50 (nM) Range
Procedure: as §1, §2, §3, §4, §5, §6, §7

HIV-1 (strain IIIB) = assay: MT4 cell assay, antiviral HIV activity (propidium iodide); assay type: cell-based; conditions: Human immunodeficiency virus 1, IIIB
Procedure: Antiviral HIV activity and compound-induced cytotoxicity were measured in parallel by means of a propidium iodide based procedure in the human T-cell lymphotropic virus transformed cell line MT4. Aliquots of the test compounds were serially diluted in medium (RPMI 1640, 10% fetal calf serum (FCS), and gentamycin) in 96-well plates (Costar 3598) using a Cetus Pro/Pette. Exponentially growing MT4 cells were harvested and centrifuged at 1000 rpm for 10 min in a Jouan centrifuge (model CR 4 12). Cell pellets were resuspended in fresh medium (RPMI 1640, 20% FCS, 20% IL-2, and gentamycin) to a density of 5×10^5 cells/ml. Cell aliquots were infected by the addition of HIV-1 (strain IIIB) diluted to give a viral multiplicity of infection of 100×TCID50. A similar cell aliquot was diluted with medium to provide a mock-infected control. Cell infection was allowed to proceed for 1 hr at 37° C. in a tissue culture incubator with humidified 5% CO2 atmosphere. After the 1 hr incubation the virus/cell suspensions were diluted 6-fold with fresh medium, and 125 μl of the cell suspension was added to each well of the plate containing pre-diluted compound. Plates were then placed in a tissue culture incubator with humidified 5% CO2 for 5 days. At the end of the incubation period, 27 μl of 5% Nonidet-40 was added to each well of the incubation plate. After thorough mixing with a Costar multitip pipetter, 60 μl of the mixture was transferred to filter-bottomed 96-well plates. The plates were analyzed in an automated assay instrument (Screen Machine, Idexx Laboratories). The control and standard used was 3′-azido-3′-deoxythymidine tested over a concentration range of 0.01 to 1 μM in every assay. […] The assay-makes use of a propidium iodide dye to estimate the DNA content of each well.
The antiviral effect of a test compound is reported as an IC50, i.e. the inhibitory concentration that would produce a 50% decrease in the HIV-induced cytopathic effect. This effect is measured by the amount of test compound required to restore 50% of the cell growth of HIV-infected MT4 cells, compared to uninfected MT4 cell controls. IC50 was calculated by RoboSage, Automated Curve Fitting Program, version 5.00, 10 Jul. 1995.
For each assay plate, the results (relative fluorescence units, rfU) of wells containing uninfected cells or infected cells with no compound were averaged, respectively. For measurements of compound-induced cytotoxicty, results from wells containing various compound concentrations and uninfected cells were compared to the average of uninfected cells without compound treatment. Percent of cells remaining is determined by the following formula: Percent of cells remaining=(compound−treated uninfected cells, rfU/untreated uninfected cells)×100.
A level of percent of cells remaining of 79% or less indicates a significant level of direct compound-induced cytotoxicity for the compound at that concentration. When this condition occurs the results from the compound-treated infected wells at this concentration are not included in the calculation of IC50.
For measurements of compound antiviral activity, results from wells containing various compound concentrations and infected cells are compared to the average of uninfected and infected cells without compound treatment. Percent inhibition of virus is determined by the following formula: Percent inhibition of virus=(1−((ave. untreated uninfected cells−treated infected cells)/(ave. untreated uninfected cells−ave. untreated infected cells)))×100

[6] = test system: isogenic HIV-1 RT mutant virus K103N/Y181C; assay: HeLa cell assay (HIV-LTR β-galactosidase reporter); assay type: cell-based; conditions: Human immunodeficiency virus 1, HeLa, read-out: IC50 (nM) Range
Procedure: as §1, §2, §3, §4, §5, §6, §7

HIV-2 = assay: MT4 cell assay, antiviral HIV activity (propidium iodide); assay type: cell-based; conditions: Human immunodeficiency virus 2, Virus Type HIV-2, read-out: IC50 (nM) Range
[7] = test system: isogenic HIV-1 RT mutant virus V106A; assay: HeLa cell assay (HIV-LTR β-galactosidase reporter); assay type: cell-based; conditions: Human immunodeficiency virus 1, HeLa, read-out: IC50 (nM) Range
Procedure: as §1, §2, §3, §4, §5, §6, §7

[8] = Virus Type HIV-1, Assay MT4, read-out: IC50 (nM) Range

SMILES	IC50 (WTRVA)	IC50 (NEV-R)	IC50 [3]	IC50 [4]	IC50 (HIV-1 (strain IIIB); [8])	IC50 [6]	also measured
Cc1cc(Cl)cc(C(=O)c2cc(Cl)ccc2OCC(=O)Nc2ccc(S(N)(=O)=O)cc2C)c1 [Compound 483]	11 to 100 nM	< 10 nM	101 to 1000 nM	101 to 1000 nM	11 to 100 nM		IC50 [1]: < 10 nM; IC50 [2]: 101 to 1000 nM; IC50 [5]: 11 to 100 nM
CS(=O)(=O)Nc1ccc(NC(=O)COc2ccc(Cl)cc2C(=O)c2ccccc2)cc1 [Compound 338]	< 10 nM	11 to 100 nM	11 to 100 nM	11 to 100 nM	< 10 nM	101 to 1000 nM	
Cc1cc(OCCCN2CCOCC2)ccc1NC(=O)COc1ccc(Cl)cc1C(=O)c1cccs1 [Compound 120]	11 to 100 nM	11 to 100 nM	11 to 100 nM	11 to 100 nM	11 to 100 nM	101 to 1000 nM	
Cc1cc(S(N)(=O)=O)ccc1NC(=O)COc1ccc(Cl)cc1C(=O)c1cc(Cl)cc(Cl)c1 [Compound 79]		< 10 nM	< 10 nM		< 10 nM	< 10 nM	IC50 (HIV-2): 1000 to 3000 nM
O=C(c1cc(F)cc(F)c1)c1cc(Cl)ccc1OCC(=O)N1CCc2ccccc21 [Compound 276]							melting point: 158 to 160 °C
O=C(COc1ccc(Cl)cc1C(=O)c1cc2ccccc2o1)Nc1ccccc1 [Compound 9]		101 to 1000 nM			11 to 100 nM		
Cc1cc(N2CC[S+]([O-])CC2)ccc1NC(=O)COc1ccc(Cl)cc1C(=O)c1cccs1 [Compound 122]	11 to 100 nM	11 to 100 nM	11 to 100 nM	101 to 1000 nM	< 10 nM	1000 to 3000 nM	
O=C(COc1ccc(Cl)cc1C(=O)c1ccccc1)Nc1ccc(-n2cncn2)cc1 [Compound 103]		101 to 1000 nM	11 to 100 nM		11 to 100 nM		
COc1ccc(NC(=O)COc2ccc(Cl)cc2C(=O)c2cc(F)cc(F)c2)cn1 [Compound 274]							melting point: 185 to 187 °C
O=C(COc1ccc(Cl)cc1C(=O)c1ccco1)Nc1ccc2cn[nH]c2c1 [Compound 435]	< 10 nM	11 to 100 nM	< 10 nM	11 to 100 nM	< 10 nM	101 to 1000 nM	
O=C(COc1ccc(Cl)cc1C(=O)c1cc(F)cc(F)c1)Nc1ccc(Cl)nc1 [Compound 275]							melting point: 198 to 200 °C
Cc1cc(S(N)(=O)=O)ccc1NC(=O)COc1ccc(Cl)cc1C(=O)c1cc(C#N)cc(C#N)c1 [Compound 601]	< 10 nM	< 10 nM	< 10 nM	< 10 nM	< 10 nM		IC50 [7]: < 10 nM
Cc1cc(N2CC[S+]([O-])CC2)ccc1NC(=O)COc1ccc(Cl)cc1C(=O)c1nccs1 [Compound 8]		101 to 1000 nM			11 to 100 nM		
O=C(COc1ccc(Cl)cc1C(=O)c1ccccc1)Nc1ccc2cn[nH]c2c1 [Compound 387]	< 10 nM	11 to 100 nM	< 10 nM	11 to 100 nM	< 10 nM	11 to 100 nM	
O=C(COc1ccc(Cl)cc1C(=O)c1cc(F)cc(F)c1)Nc1ccc2c(c1)CS(=O)(=O)C2 [Compound 277]							melting point: 197 to 199 °C
Cc1cn([C@H]2C[C@H](N=[N+]=[N-])[C@@H](CO)O2)c(=O)[nH]c1=O [3′-azido-3′-deoxythymidine, reference compound]							IC50 (HIV-1 (strain IIIB); control and standard tested in every MT4 assay, 0.01 to 1 μM, read-out: expected range of IC50 values): 40 to 120 nM
O=C(COc1ccc(Cl)cc1C(=O)c1nccs1)Nc1ccc2[nH]ncc2c1 [Compound 5]		101 to 1000 nM			11 to 100 nM		
O=C(COc1ccc(Cl)cc1C(=O)c1nccs1)Nc1ccccc1 [Compound 1]		1000 to 3000 nM			101 to 1000 nM		
